Measurements as given in patent US20250115669A1, “FGFR1/KLB Targeting Agonistic Antigen-Binding Proteins and Conjugates Thereof with GLP-1R Agonistic Peptides” (SANOFI, priority 2020, published 2025).

Assay: SAR16 (16H7) standalone and in combination with dulaglutide in DIO NASH cynomolgus monkeys
Assay type: in vivo, Cynomolgus monkey (Macaca fascicularis)
Protocol: Both were tested as single administration and in combination of both in the most relevant animal model that reflects the intended human population. Thus, the pharmacokinetic and pharmacodynamics of varying doses of the compounds were explored in the high-fat diet-induced obese and insulin resistance cynomolgus monkey model with diagnosed non-alcoholic steatohepatitis (NASH), mimicking the adult human NASH insulin resistance phenotype.
Cynomolgus monkey (Macaca fascicularis) was selected as the test species of choice for more meaningful results that were translatable to humans. More than 50 male monkeys were trained to identify 40 HFD induced obese NASH monkeys for the study.
There was a run-in period during which monkeys were injected subcutaneously with vehicle every third day. Food intake (calculated as TEI) and water intake were measured daily along with twice-weekly body weight evaluation and baseline value determination for metabolic biomarkers, safety biomarkers, IV glucose tolerance test (IVGTT), liver biopsy for gene expression analysis, and profile for glucose, insulin, and plasma lipids.
For the dosing period 40 trained monkeys (n=10 per group) were selected and stratified for body weight, fasting plasma glucose (FPG), and fasting plasma insulin (FPI) and insulin response from baseline during the IVGTT. All treatments were administered subcutaneously for […]. The dosing period was designed as a four-arm, dose-ramping study, and monkeys were treated with either vehicle, SAR10, SAR16, or a combination of both SAR10 and SAR16.
(§1) The SAR10-treated monkeys were dosed every 3rd day at 60 μg/kg initiated by dose ramping (3 dose steps, week 1: 20 μg/kg, week 2: 40 μg/kg, week 3 to runout: 60 μg/kg). The SAR16-treated monkeys were dosed at 1 mg/kg on day +1, 3 mg/kg on day +16, and then repeat maintenance dose of 3 mg/kg on day +46. The Combo-treated monkey were dosed with both SAR10 and SAR16 as the same pattern of the SAR10 and SAR16 treated monkeys.
Other parameters were also measured during the study, including food intake, body fat, plasma ketone bodies, as well as blood glucose control (glucose profile, fed, fasting plasma glucose and during ivGTT). One group received the vehicle. The compounds were administered subcutaneously (SC) (12 weeks “evaluation phase” plus run-out) to obese and NASH male cynomolgus macaques (Macaca fascicularis).
as §1, with “at” for “as”

[1] = compared to the vehicle treated group
[2] = day +76 compared to baseline (day −27)

16H7: anti FGFR1c/KLB monoclonal antibody of WO 2011/071783, IgG2 backbone; HC SEQ ID NO: 1, LC SEQ ID NO: 2 [Ab 16H7]
body weight (in words) (DIO NASH cynomolgus monkeys): Significant reductions in body weight | food intake (DIO NASH cynomolgus monkeys): Reduction of food intake | fasting glucose and fed glucose levels (12:30 and 18:30) [1]: No significant change | ivGTT glucose AUC [1]: significantly decreased | blood glucose levels, plasma profile [2]: appreciable decreases | insulin, plasma profile [2]: decreased | HDL levels, plasma profile (day +76 versus day −27): slightly increased | T-ketones levels, plasma profile (day +76 versus day −27): increased T-ketones levels | TC and LDL levels, plasma profile (day +76 versus day −27): quite stable | TG values, plasma profile (day +76 versus day −27): lower TG values | liver fat fraction change (MRI) (measured on days +81/+82/+83/+84, DIO NASH cynomolgus monkeys): −30.0% | NASH steatosis score (more monkeys improved compared to vehicle treated group): improved steatosis score
